Like-named read-outs stand apart in the source and are kept apart here. Marks after values point to notes of the source that are not given here.
Experiments:
dog renal Na,K-ATPase = molecular target: T1, dog renal Na,K-ATPase (Canis lupus familiaris, UniProt P50997); test: Inhibition of dog renal Na,K-ATPase activity (32P-ATP release); format: biochemical
T1 construct: incubated with 0.3 μg of purified dog kidney enzyme; from tissue; host or cells: dog kidney outer medulla
Protocol: Kidneys were sliced and the outer medulla was dissected, pooled and suspended (1 g/10 ml) in a sucrose-histidine solution, containing 250 mM sucrose, 30 mM histidine and 5 mM EDTA, pH 7.2 and homogenized. […] The pellet was suspended in the sucrose-histidine buffer and incubated for 20 min with a sodium-dodecyl-sulphate (SDS) solution dissolved in a gradient buffer, containing 25 mM imidazole and 1 mM EDTA, pH 7.5. […] The pellet was suspended in the gradient buffer.
Increasing concentrations of the standard ouabain, or tested compound, were incubated with 0.3 μg of purified dog kidney enzyme for 10 min at 37° C. in 120 μl final volume of a medium, containing 140 mM NaCl, 3 mM MgCl2, 50 mM Hepes-Tris, 3 mM ATP, pH 7.5. […] The inhibitory activity was expressed as percent of the control samples carried out in the absence of ouabain or tested compound.

SERCA2a = molecular target: T2, SERCA2a (Canis lupus familiaris, UniProt O46674); test: SERCA2a ATPase activity in heart-derived SR microsomes from normal dog; format: biochemical; conditions: for Vmax (SERCA2a ATPase activity): mean ± SD
T2 construct: pre-incubated with 2 μg of microsomes; from tissue; host or cells: dog heart left ventricle, SR microsomes
Protocol: Left ventricle tissues were dissected, homogenized in 4 volumes of 10 mM NaHCO3, pH 7, 1 mM PMSF, 10 μg/ml Aprotinin and Leupeptin and centrifuged at 12,000 g for 15 minutes, as published (Nediani C. et al. J Biol Chem. 1996; 271:19066-73). Supernatants were filtered and centrifuged at 100,000 g for 30 min. Contractile proteins were extracted by suspending the pellets with 0.6 M KCl, 30 mM Histidine, pH 7 and further centrifugation at 100,000 g for 30 min. Final pellets were reconstituted with 0.3 M Sucrose, 30 mM Histidine, pH 7.
SERCA2a activity was measured “in vitro” as ^32P-ATP hydrolysis at different Ca^2+ concentrations (100-4000 nM) in the absence and presence of the tested compounds, as described (Micheletti R. et al. Am J Card 2007; 99:24A-32A). Increasing concentrations of each compound (from 1 to 100 nM) were pre-incubated with 2 μg of microsomes for 5 min at 4° C. in 80 μl of a solution containing 100 mM KCl, 5 mM MgCl2, 1 μM A23187, 20 mM Tris, pH 7.5. Then, 20 μl of 5 mM Tris-ATP containing 50 nCi of ^32P-ATP (3-10 Ci/mmol, Perkin Elmer) were added. The ATP hydrolysis was continued for 15 min at 37° C. and the reaction was stopped by acidification with 100 μl of 20% v/v ice-cold perchloric acid. ^32P was separated by centrifugation with activated charcoal (Norit A, SERVA) and the radioactivity was measured. SERCA2a-dependent activity was identified as the portion of total hydrolytic activity inhibited by 10 μM cyclopiazonic acid (Seidler N W. et al. J Biol Chem. 1989; 264:17816-23).
Dose-response curves were fitted by using a sigmoidal curve fitting software and the maximal velocity (Vmax) activity and the Kd Ca^2+ were calculated (Synergy Software KaleidaGraph 3.6).

[1] = tested on: guinea pig isolated cardiomyocytes; test: SR Ca2+ uptake function (loading protocol) in isolated ventricular cardiomyocytes; format: cell-based; conditions: 100 nM
Protocol: The compounds were characterized for their effect on (i) SR Ca^2+ uptake function, (ii) action potential (AP) in myocytes freshly dissociated from guinea-pig ventricles by retrograde coronary perfusion with enzymatic solution (Rocchetti M et al. J Pharmacol Exper Therap 2005; 313(1):207-215).
Drug effects on SR Ca^2+ uptake rate were evaluated with an SR “loading protocol” specifically devised to rule out the contribution of the Na/Ca exchanger (NCX) and to assess the uptake rate starting at low levels of SR Ca^2+ loading. Under voltage-clamp conditions, intracellular Ca^2+ concentration was dynamically measured by epifluorescence (Fluo4-AM). Membrane current, whose time-dependent component mainly reflected ICaL, was simultaneously recorded. The SR loading protocol consisted in emptying the SR (by a brief caffeine pulse) and then progressively refilling it by voltage steps activating Ca^2+ influx through the sarcolemmal Ca^2+ channel (ICaL). NCX was blocked by omission of Na^+ from intracellular and extracellular solutions. The procedure is in agreement with published methods, with minor modifications (Rocchetti M et al. J Pharmacol Exper Therap 2005; 313(1):207-215).
Drug effects on SR Ca^2+ uptake were analysed by considering multiple parameters: 1) the rate at which Ca^2+ transient (CaT) amplitude increased during the loading protocol, which reflects the rate at which the SR refilled and 2) the time constant of cytosolic Ca^2+ decay (Tdecay) within each pulse, reflecting net Ca^2+ transport rate (by SERCA2a) across the SR membrane (a decrease in Tdecay corresponds to enhanced SR Ca^2+ uptake).

guinea pig = test: Haemodynamics: inotropic and lethal dose in guinea pig; format: in vivo; conditions: i.v. infusion 0.3 mg/kg/min
Protocol: Guinea-pigs (400-450 g) were anaesthetized with urethane (1.5 g/kg ip). A microtip pressure transducer was introduced into the left ventricle through the right carotid artery to measure ventricular pressure (LVP); the transducer was coupled with a transducer amplifier. Recordings were fed to a polygraph and analyzed. A polythene cannula was inserted into a jugular vein for drug infusion. After a stabilization period, the test substance was injected at the rate of 0.16 ml/min for 90 min (Micheletti R et al. J Pharmacol Exp Ther 2002; 303:592-600).
The following parameters were obtained: heart rate (HR), left ventricular pressure (LVP), maximal velocity of pressure rise (+dP/dtmax) and decay (−dP/dtmax), ECG. For inotropy, the time elapsed until +dP/dtmax increased by 80% was identified in order to determine the ED80 (dose increasing basal +dP/dtmax by 80%). The time to the maximum increase in +dP/dtmax was also identified to determine the maximum effective dose, EDmax. Lusitropy was characterized by the dose inducing the maximum decrease in −dP/dtmax, (EDmax). As indexes of toxicity, the dose administered until the onset of arrhythmias and the dose inducing death (LD) were calculated. The safety ratio for the tested compound was also calculated as the ratio between LD and ED80.

[2] = purified dog kidney enzyme, read-out: IC50, inhibition of dog renal Na,K-ATPase

T2 sequence (O46674 whole entry): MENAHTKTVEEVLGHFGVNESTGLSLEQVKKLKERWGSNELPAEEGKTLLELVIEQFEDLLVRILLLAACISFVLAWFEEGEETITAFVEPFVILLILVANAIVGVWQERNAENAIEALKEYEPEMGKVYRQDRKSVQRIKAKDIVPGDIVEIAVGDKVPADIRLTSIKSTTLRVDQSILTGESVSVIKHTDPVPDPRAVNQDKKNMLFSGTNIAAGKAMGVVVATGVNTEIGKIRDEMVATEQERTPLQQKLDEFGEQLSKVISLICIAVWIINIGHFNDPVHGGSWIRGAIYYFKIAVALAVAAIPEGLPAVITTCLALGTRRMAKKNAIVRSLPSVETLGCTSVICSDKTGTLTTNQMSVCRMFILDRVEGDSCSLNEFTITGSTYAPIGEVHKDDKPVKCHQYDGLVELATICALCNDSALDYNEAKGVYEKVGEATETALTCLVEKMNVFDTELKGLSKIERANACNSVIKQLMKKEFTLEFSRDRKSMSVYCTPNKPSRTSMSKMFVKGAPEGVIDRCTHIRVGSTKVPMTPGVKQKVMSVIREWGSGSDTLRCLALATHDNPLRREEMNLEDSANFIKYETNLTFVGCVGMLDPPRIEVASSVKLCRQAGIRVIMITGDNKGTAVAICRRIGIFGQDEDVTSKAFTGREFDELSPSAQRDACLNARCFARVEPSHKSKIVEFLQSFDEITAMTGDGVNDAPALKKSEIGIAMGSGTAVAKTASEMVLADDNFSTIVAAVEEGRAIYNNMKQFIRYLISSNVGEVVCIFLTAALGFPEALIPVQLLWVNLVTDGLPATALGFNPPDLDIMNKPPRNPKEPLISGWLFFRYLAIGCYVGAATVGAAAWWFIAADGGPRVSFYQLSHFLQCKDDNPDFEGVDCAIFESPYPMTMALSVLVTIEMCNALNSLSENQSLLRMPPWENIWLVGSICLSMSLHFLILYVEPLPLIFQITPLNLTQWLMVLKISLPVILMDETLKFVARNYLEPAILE

Row | SMILES | IC50 (dog renal Na,K-ATPase) | % increase vs Control (SERCA2a Vmax) (SERCA2a; compound 10 nM) | Vmax (SERCA2a ATPase activity) (SERCA2a; compound 10 nM) | % increase vs Control (SERCA2a Vmax) (SERCA2a; compound 100 nM) | Vmax (SERCA2a ATPase activity) (SERCA2a; compound 100 nM) | IC50 (dog renal Na,K-ATPase; [2]) | % increase vs Control (SERCA2a Vmax) (SERCA2a; compound 1 nM) | Vmax (SERCA2a ATPase activity) (SERCA2a; compound 1 nM) | further results
1 | C[C@]12CC[C@H](O)C[C@H]1CCC1C2CC[C@]2(C)[C@@H](c3cc[nH]n3)CC[C@]12O (stereo partly drawn) [CVie 103, 3β-hydroxy-5β-10β-methyl-13β-methyl-14β-hydroxy-17β-(pyrazol-3-yl)androstane] | 4 µM | 11%* | 2.569 ± 0.278 (n = 7) μmol/min/mg prot | 16%* | 2.688 ± 0.285 (n = 7) μmol/min/mg prot | – | – | – | –
2 | C[C@]12CC[C@H](O)C[C@H]1CCC1C2CC[C@]2(C)[C@@H](CCc3cc(CCN)on3)CC[C@]12O (some centres unmarked) [CVie 109] | – | 14% | 2.859 ± 0.504 (n = 4) μmol/min/mg prot | 15%* | 2.889 ± 0.305 (n = 4) μmol/min/mg prot | 1 µM | – | – | –
3 | C[C@]12[C@H](O)CC3C(CC[C@@H]4C[C@@H](O)CC[C@]34C)[C@@]1(O)CC[C@@H]2c1csc(N=C(N)N)n1 (stereo partly drawn) [CVie 105, 3β-hydroxy-5β-10β-methyl-12β-hydroxy-13β-methyl-14β-hydroxy-17β-(2-guanidino-thiazol-4-yl)androstane] | 0.53 µM | – | – | – | – | – | – | – | –
4 | C[C@]12CC[C@H](O)C[C@H]1CCC1C2CC[C@]2(C)[C@@H](c3cn(CCCN)cn3)CC[C@]12O (stereo partly drawn) [CVie 106, 3β-hydroxy-5β-10β-methyl-13β-methyl-14β-hydroxy-17β-(N-(3-aminopropyl)-imidazol-4-yl)androstane] | – | 15% | 2.935 ± 0.403 (n = 3) μmol/min/mg prot | – | – | 10 µM | 22% * | 3.113 ± 0.157 (n = 3) μmol/min/mg prot | –
5 | C[C@]12CC[C@H](O)C[C@H]1CCC1C2CC[C@]2(C)[C@@H](/C=C/c3cc(CN)on3)CC[C@]12O (some centres unmarked) [CVie 110] | 0.33 µM | 18%* | 2.903 ± 0.188 (n = 3) μmol/min/mg prot | – | – | – | 19% | 2.924 ± 0.549 (n = 3) μmol/min/mg prot | –
6 | C[C@]12CC[C@H](O)C[C@H]1CCC1C2CC[C@]2(C)[C@@H](c3cc(CCCN)on3)CC[C@]12O (stereo partly drawn) [CVie 107, 3β-hydroxy-5β-10β-methyl-13β-methyl-14β-hydroxy-17β-((5-(3-aminopropyl)-isoxazol-3-yl))androstane] | – | 7% | 2.508 ± 0.339 (n = 3) μmol/min/mg prot | 17%* | 2.751 ± 0.171 (n = 3) μmol/min/mg prot | 0.15 µM | – | – | –
7 | C[C@]12CC[C@H](O)C[C@H]1CC[C@@H]1[C@@H]2C[C@@H](O)[C@]2(C)[C@@H](C3=CC(=O)OC3)CC[C@]12O [DIGOXIGENIN, Digoxigenin, reference compound] | 0.23 µM | – | – | – | – | – | – | – | –
8 | C[C@]12CC[C@H](O)C[C@H]1CCC1C2CC[C@]2(C)[C@@H](CCc3cc(CCCN)on3)CC[C@]12O (stereo partly drawn) [CVie 108, 3β-hydroxy-5β-10β-methyl-13β-methyl-14β-hydroxy-17β-((5-(3-aminopropyl)-isoxazol-3-yl)-ethyl)androstane] | – | 16%* | 2.980 ± 0.441 (n = 4) μmol/min/mg prot | – | – | 3.3 µM | 15% | 2.94 ± 0.306 (n = 3) μmol/min/mg prot | –
9 | C[C@]12[C@H](O)CC3C(CC[C@@H]4C[C@@H](O)CC[C@]34C)[C@@]1(O)CC[C@@H]2c1c[nH]cn1 (stereo partly drawn) [CVie 104, 3β-hydroxy-5β-10β-methyl-12β-hydroxy-13β-methyl-14β-hydroxy-17β-(imidazol-4-yl)androstane] | – | 20%* | 1.551 ± 0.275 (n = 4) μmol/min/mg prot | – | – | 1.61 µM | 11%* | 1.437 ± 0.158 (n = 4) μmol/min/mg prot | –
10 | C[C@]12CC[C@H](O)C[C@H]1CCC1C2CC[C@]2(C)[C@@H](c3csc(N=C(N)N)n3)CC[C@]12O (stereo partly drawn) [CVie 102, 3β-hydroxy-5β-10β-methyl-13β-methyl-14β-hydroxy-17β-(2-guanidino-thiazol-4-yl)androstane] | 1.7 µM | 13%* | 2.660 ± 0.232 (n = 12) μmol/min/mg prot | – | – | – | 25%* | 2.949 ± 0.321 (n = 6) μmol/min/mg prot | rate of Ca2+ transient (CaT) increment during SR reloading ([1]; FIG. 1A, 1C): increased; time constant of cytosolic Ca2+ decay within each pulse (τdecay) ([1]; FIG. 1B, 1D): reduced; Dead/treated number (guinea pig): 11/11; ED80 (guinea pig): 3.8 mg/kg; Lethal dose (guinea pig): 12.57 mg/kg; E max % increase in dP/dtmax (guinea pig; 90 min): 138.3%; ED max (guinea pig; cumulative dose): 8.6 mg/kg; LD/ED80 (guinea pig; safety ratio): 5.42

Reference: US11730746B2, “17beta-heterocyclyl-digitalis like compounds for the treatment of heart failure” (priority 2018, dated 2023)
